From patent publication US9000002B2, “N1-substituted-5-fluoro-2-oxopyrimidinone-1(2H)-carboxamide derivatives” (Dow Agrosciences LLC, priority 2009, dated 2015)
Like-named read-outs stand apart in the source and are kept apart here.

How the values were obtained:
[1] = system: Mycosphaerella graminicola; Anamorph: Septoria tritici; Bayer Code SEPTTR; experiment: Evaluation of fungicidal activity: leaf blotch of wheat (SEPTTR), wheat plants variety Yuma; assay type: in vivo; conditions: Zymoseptoria tritici
Method: Evaluation of Fungicidal Activity: Leaf Blotch of Wheat (Mycosphaerella graminicola; Anamorph: Septoria tritici; Bayer Code […]) Wheat plants (variety Yuma) were grown from seed in a greenhouse in 50% mineral soil/50% soil-less Metro mix until the first leaf was fully emerged, with 7-10 seedlings per pot. These plants were inoculated with an aqueous spore suspension of Septoria tritici either prior to or after fungicide treatments. After inoculation the plants were kept in 100% relative humidity (one day in a dark dew chamber followed by two to three days in a lighted dew chamber) to permit spores to germinate and infect the leaf. The plants were then transferred to a greenhouse for disease to develop. The following table presents the activity of typical compounds of the present disclosure when evaluated in these experiments. The effectiveness of the test compounds in controlling disease was determined by assessing the severity of disease on treated plants, then converting the severity to percent control based on the level of disease on untreated, inoculated plants. • In each case of Table II the rating scale is as follows: […]

[2] = 24 h, One-Day Protectant (1DP), 100 ppm, wheat plants, percent control vs untreated inoculated plants, read-out: SEPTTR 100 PPM 1DP (% Disease Control rating)
[3] = 72 h, Three-Day Curative (3DC), 100 ppm, wheat plants, percent control vs untreated inoculated plants, read-out: SEPTTR 100 PPM 3DC (% Disease Control rating)

| SMILES | melting point [°C] | pest or weed control at 100 ppm [1, 2] [%] | pest or weed control at 100 ppm [1, 3] [%] | pest or weed control at 100 ppm ([1]; 24 h, read-out: SEPTTR 100 PPM 1DP (% Disease Control rating)) [%] | pest or weed control at 100 ppm ([1]; 72 h, read-out: SEPTTR 100 PPM 3DC (% Disease Control rating)) [%] |
| --- | --- | --- | --- | --- | --- |
| COc1cccc(NC(=O)n2cc(F)c(N)nc2=O)c1 [Compound 16] | 242 to 244 | 76 to 100 | 76 to 100 | – | – |
| CCNC(=O)n1cc(F)c(NC(=O)c2ccccc2)nc1=O [Compound 44] | 249 to 251 | 76 to 100 | 76 to 100 | – | – |
| CCOC(=O)CNC(=O)n1cc(F)c(N)nc1=O [Compound 25] | 220 to 224 | 76 to 100 | 76 to 100 | – | – |
| O=C(Nc1ccccc1)n1cc(F)c(NCc2ccccc2F)nc1=O [Compound 28, 5-fluoro-4-(2-fluorobenzylamino)-2-oxo-N-phenylpyrimidine-1(2H)-carboxamide] | 154 to 157 | – | – | 0 to 25 | 26 to 50 |
| Cn1ccc2cc(NC(=O)n3cc(F)c(N)nc3=O)ccc21 [Compound 18] | 268 to 270 | 76 to 100 | 76 to 100 | – | – |
| Nc1nc(=O)n(C(=O)Nc2ccc(F)cc2)cc1F [Compound 21] | 257 to 259 | 76 to 100 | 76 to 100 | – | – |
| CCCNC(=O)n1cc(F)c(NC(=O)c2ccccc2)nc1=O [Compound 40] | 258 to 260 | 76 to 100 | 76 to 100 | – | – |
| Nc1nc(=O)n(C(=O)Nc2ccsc2)cc1F [Compound 20] | 263 to 265 | 76 to 100 | 76 to 100 | – | – |
| O=C(Nc1cccc(Cl)c1)n1cc(F)c(NCc2ccccc2F)nc1=O [Compound 31] | 158 to 160 | 0 to 25 | 0 to 25 | – | – |
| Nc1nc(=O)n(C(=O)Nc2ccc3ccccc3c2)cc1F [Compound 17] | 273 to 275 | 76 to 100 | 76 to 100 | – | – |
| CCCNC(=O)n1cc(F)c(NC(=O)C(C)C)nc1=O [Compound 41] | 226 to 228 | 76 to 100 | 76 to 100 | – | – |

Continued, in another order:

| melting point [°C] | SMILES | pest or weed control at 100 ppm [1, 2] [%] | pest or weed control at 100 ppm [1, 3] [%] | pest or weed control at 100 ppm ([1]; 24 h, read-out: SEPTTR 100 PPM 1DP (% Disease Control rating)) [%] | pest or weed control at 100 ppm ([1]; 72 h, read-out: SEPTTR 100 PPM 3DC (% Disease Control rating)) [%] |
| --- | --- | --- | --- | --- | --- |
| 248 to 250 | CCNC(=O)n1cc(F)c(NC(=O)NCc2ccccc2OC)nc1=O [Compound 49, N-ethyl-5-fluoro-4-(3-(2-methoxybenzyl)ureido)-2-oxopyrimidine-1(2H)-carboxamide] | 0 to 25 | 0 to 25 | – | – |
| 239 to 241 | CCCNC(=O)n1cc(F)c(NC(=O)c2ccccc2Cl)nc1=O [Compound 42] | 26 to 50 | 76 to 100 | – | – |
| 227 to 229 | CCCNC(=O)n1cc(F)c(NC(=O)Cc2ccc(OC)cc2)nc1=O [Compound 43] | 76 to 100 | 76 to 100 | – | – |
| 250 to 252 | Nc1nc(=O)n(C(=O)Nc2cccc(Cl)c2)cc1F [Compound 14, 4-amino-N-(3-chlorophenyl)-5-fluoro-2-oxopyrimidine-1(2H)-carboxamide] | 76 to 100 | 76 to 100 | – | – |
| 200 to 203 | CN(C(=S)n1cc(F)c(N)nc1=O)c1cc(Cl)cc(Cl)c1 [Compound 36] | 76 to 100 | 76 to 100 | – | – |
| 294 to 297 | Nc1nc(=O)n(C(=O)NC2CCCC2)cc1F [Compound 5, 4-amino-N-cyclopentyl-5-fluoro-2-oxopyrimidine-1(2H)-carboxamide] | 76 to 100 | 76 to 100 | – | – |
| 237 to 239 | CSCCNC(=O)n1cc(F)c(N)nc1=O [Compound 26] | 76 to 100 | 76 to 100 | – | – |
| 251 to 254 | Nc1nc(=O)n(C(=O)Nc2ccc(F)c(Cl)c2)cc1F [Compound 11] | 76 to 100 | 26 to 50 | – | – |
